Experimental data from the supplement of paper PMC10733146.

Assays:
Assay in all cases: viability relative to DMSO control (fraction); higher = less drug effect (more viable cells)
Conditions in all cases: 48 h
[1] = compound: C[C@H]1C[C@@H](n2c(Nc3ccc(OC(F)(F)F)cc3)nc3cc(CCC(=O)O)ccc32)CC(C)(C)C1
Summary of the method: (§1)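 Viability is given as CellTiter-Glo luminescence relative to the median of 16 inner DMSO wells. Fresh or cryopreserved primary mononuclear tumour cells from blood, bone marrow (both Ficoll-isolated) or processed lymph node were plated at 4 × 10^4 cells per well in 384-well plates against five pre-plated compound concentrations, one well each. Incubation lasted 48 h at 37 °C and 5% CO2 in RPMI-1640 with penicillin/streptomycin, L-glutamine and human serum.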

Filgotinib = compound: O=C(Nc1nc2cccc(-c3ccc(CN4CCS(=O)(=O)CC4)cc3)n2n1)C1CC1 [Filgotinib]
Summary of the method: as §1

I-BET-762 = compound: CCNC(=O)C[C@@H]1N=C(c2ccc(Cl)cc2)c2cc(OC)ccc2-n2c(C)nnc21 [I-BET-762]
Summary of the method: as §1

Venetoclax = compound: CC1(C)CCC(CN2CCN(c3ccc(C(=O)NS(=O)(=O)c4ccc(NCC5CCOCC5)c([N+](=O)[O-])c4)c(Oc4cnc5[nH]ccc5c4)c3)CC2)=C(c2ccc(Cl)cc2)C1 [Venetoclax]
Summary of the method: as §1

Navitoclax = compound: CC1(C)CCC(c2ccc(Cl)cc2)=C(CN2CCN(c3ccc(C(=O)NS(=O)(=O)c4ccc(N[C@H](CCN5CCOCC5)CSc5ccccc5)c(S(=O)(=O)C(F)(F)F)c4)cc3)CC2)C1 [Navitoclax]
Summary of the method: as §1

[2] = compound: O=C(NO)c1cccc(C(=O)NCCc2ccccc2)c1
Summary of the method: as §1

EPZ-6438 = compound: CCN(c1cc(-c2ccc(CN3CCOCC3)cc2)cc(C(=O)NCc2c(C)cc(C)[nH]c2=O)c1C)C1CCOCC1 [EPZ-6438]
Summary of the method: as §1

[3] = compound: C[C@H](NC(=O)CCC(F)(F)F)C(=O)N[C@@H]1C(=O)N(CCO)c2ncccc2-c2ccccc21
Summary of the method: as §1

CPI-169 = compound: CCS(=O)(=O)N1CCC([C@@H](C)n2c(C)c(C(=O)NCc3c(OC)cc(C)[nH]c3=O)c3ccccc32)CC1 [CPI-169]
Summary of the method: as §1

Barasertib = compound: CCN(CCCOc1ccc2c(Nc3cc(CC(=O)Nc4cccc(F)c4)[nH]n3)ncnc2c1)CCOP(=O)(O)O [Barasertib]
Summary of the method: as §1

[4] = compound: CCc1ccc(/C=C2/SC(=S)NC2=O)cc1
Summary of the method: as §1

Palbociclib = compound: CC(=O)c1c(C)c2cnc(Nc3ccc(N4CCNCC4)cn3)nc2n(C2CCCC2)c1=O [Palbociclib]
Summary of the method: as §1

Thalidomide = compound: O=C1CCC(N2C(=O)c3ccccc3C2=O)C(=O)N1 [Thalidomide]
Summary of the method: as §1

Selinexor = compound: O=C(/C=C\n1cnc(-c2cc(C(F)(F)F)cc(C(F)(F)F)c2)n1)NNc1cnccn1 [Selinexor]
Summary of the method: as §1

primary AML patient cells (S012) showed a viability ([1]; 0.024 µM) of 0.976, a viability ([1]; 0.12 µM) of 1.03 and a viability ([1]; 0.6 µM) of 1.11. It also gave a viability ([1]; 3 µM) of 1.01, a viability ([1]; 15 µM) of 1.08 and a viability (Filgotinib; 0.024 µM) of 0.966. The viability (Filgotinib; 0.12 µM) was 1.1, the viability (Filgotinib; 0.6 µM) was 1.01 and the viability (Filgotinib; 3 µM) was 1.04. For the same test system, the viability (Filgotinib; 15 µM) was 0.284, the viability (I-BET-762; 0.008 µM) was 1.05 and the viability (I-BET-762; 0.04 µM) was 0.998. For the same test system, the viability (I-BET-762; 0.2 µM) was 0.926, the viability (I-BET-762; 1 µM) was 0.617 and the viability (I-BET-762; 5 µM) was 0.426. For the same test system, the viability (Venetoclax; 0.00064 µM) was 1.01, the viability (Venetoclax; 0.0032 µM) was 1.05 and the viability (Venetoclax; 0.016 µM) was 1.02. It also gave a viability (Venetoclax; 0.08 µM) of 1, a viability (Venetoclax; 0.4 µM) of 1.03 and a viability (Navitoclax; 0.0032 µM) of 1.03. It also gave a viability (Navitoclax; 0.016 µM) of 1.09, a viability (Navitoclax; 0.08 µM) of 1.03 and a viability (Navitoclax; 0.4 µM) of 1.05. It also gave a viability (Navitoclax; 2 µM) of 1.03, a viability ([2]; 0.024 µM) of 1.06 and a viability ([2]; 0.12 µM) of 1.08. For the same test system, the viability ([2]; 0.6 µM) was 1.07, the viability ([2]; 3 µM) was 1.08 and the viability ([2]; 15 µM) was 1.17. For the same test system, the viability (EPZ-6438; 0.024 µM) was 1.15, the viability (EPZ-6438; 0.12 µM) was 1.07 and the viability (EPZ-6438; 0.6 µM) was 1.02. For the same test system, the viability (EPZ-6438; 3 µM) was 1.06, the viability (EPZ-6438; 15 µM) was 1.09 and the viability ([3]; 0.016 µM) was 1.02. It also gave a viability ([3]; 0.08 µM) of 1.06, a viability ([3]; 0.4 µM) of 1.01 and a viability ([3]; 2 µM) of 1.04. It also gave a viability ([3]; 10 µM) of 0.998, a viability (CPI-169; 0.024 µM) of 1.04 and a viability (CPI-169; 0.12 µM) of 1.08. The viability (CPI-169; 0.6 µM) was 1.07, the viability (CPI-169; 3 µM) was 1.06 and the viability (CPI-169; 15 µM) was 1.09. The viability (Barasertib; 0.0008 µM) was 0.95, the viability (Barasertib; 0.004 µM) was 0.946 and the viability (Barasertib; 0.02 µM) was 0.901. For the same test system, the viability (Barasertib; 0.1 µM) was 0.968, the viability (Barasertib; 0.5 µM) was 1 and the viability ([4]; 0.024 µM) was 1.03. For the same test system, the viability ([4]; 0.12 µM) was 0.873, the viability ([4]; 0.6 µM) was 1.03 and the viability ([4]; 3 µM) was 0.984. The viability ([4]; 15 µM) was 0.878, the viability (Palbociclib; 0.024 µM) was 1.04 and the viability (Palbociclib; 0.12 µM) was 1.02. It also gave a viability (Palbociclib; 0.6 µM) of 0.984, a viability (Palbociclib; 3 µM) of 0.98 and a viability (Palbociclib; 15 µM) of 0.814. It also gave a viability (Thalidomide; 0.032 µM) of 1.01, a viability (Thalidomide; 0.16 µM) of 0.975 and a viability (Thalidomide; 0.8 µM) of 0.965. For the same test system, the viability (Thalidomide; 4 µM) was 0.986, the viability (Thalidomide; 20 µM) was 0.989 and the viability (Selinexor; 0.008 µM) was 1.06. It also gave a viability (Selinexor; 0.04 µM) of 1.07, a viability (Selinexor; 0.2 µM) of 0.993 and a viability (Selinexor; 1 µM) of 0.937. It also gave a viability (Selinexor; 5 µM) of 0.925.
In the case of primary FL patient cells (S022), the viability ([1]; 0.024 µM) is reported as 0.869, the viability ([1]; 0.12 µM) is reported as 0.929 and the viability ([1]; 0.6 µM) is reported as 1. It also gave a viability ([1]; 3 µM) of 0.873, a viability ([1]; 15 µM) of 1.03 and a viability (Filgotinib; 0.024 µM) of 0.984. For the same test system, the viability (Filgotinib; 0.12 µM) was 0.944, the viability (Filgotinib; 0.6 µM) was 1.01 and the viability (Filgotinib; 3 µM) was 0.91. It also gave a viability (Filgotinib; 15 µM) of 0.568, a viability (I-BET-762; 0.008 µM) of 0.986 and a viability (I-BET-762; 0.04 µM) of 0.967. The viability (I-BET-762; 0.2 µM) was 0.945, the viability (I-BET-762; 1 µM) was 0.894 and the viability (I-BET-762; 5 µM) was 0.882. The viability (Venetoclax; 0.00064 µM) was 1.01, the viability (Venetoclax; 0.0032 µM) was 0.894 and the viability (Venetoclax; 0.016 µM) was 0.67. For the same test system, the viability (Venetoclax; 0.08 µM) was 0.313, the viability (Venetoclax; 0.4 µM) was 0.066 and the viability (Navitoclax; 0.0032 µM) was 1.05. The viability (Navitoclax; 0.016 µM) was 1.02, the viability (Navitoclax; 0.08 µM) was 0.724 and the viability (Navitoclax; 0.4 µM) was 0.329. It also gave a viability (Navitoclax; 2 µM) of 0.0687, a viability ([2]; 0.024 µM) of 1.07 and a viability ([2]; 0.12 µM) of 0.992. The viability ([2]; 0.6 µM) was 1.07, the viability ([2]; 3 µM) was 0.961 and the viability ([2]; 15 µM) was 0.984. The viability (EPZ-6438; 0.024 µM) was 1.08, the viability (EPZ-6438; 0.12 µM) was 1.04 and the viability (EPZ-6438; 0.6 µM) was 0.978. The viability (EPZ-6438; 3 µM) was 0.997, the viability (EPZ-6438; 15 µM) was 0.892 and the viability ([3]; 0.016 µM) was 1.18. For the same test system, the viability ([3]; 0.08 µM) was 1.06, the viability ([3]; 0.4 µM) was 0.968 and the viability ([3]; 2 µM) was 0.963. The viability ([3]; 10 µM) was 0.961, the viability (CPI-169; 0.024 µM) was 1.07 and the viability (CPI-169; 0.12 µM) was 0.933. For the same test system, the viability (CPI-169; 0.6 µM) was 1.14, the viability (CPI-169; 3 µM) was 0.97 and the viability (CPI-169; 15 µM) was 0.953. The viability (Barasertib; 0.0008 µM) was 0.844, the viability (Barasertib; 0.004 µM) was 0.871 and the viability (Barasertib; 0.02 µM) was 0.904. For the same test system, the viability (Barasertib; 0.1 µM) was 0.972, the viability (Barasertib; 0.5 µM) was 0.935 and the viability ([4]; 0.024 µM) was 0.83. The viability ([4]; 0.12 µM) was 0.883, the viability ([4]; 0.6 µM) was 0.901 and the viability ([4]; 3 µM) was 0.829. It also gave a viability ([4]; 15 µM) of 0.842, a viability (Palbociclib; 0.024 µM) of 1.07 and a viability (Palbociclib; 0.12 µM) of 0.973. The viability (Palbociclib; 0.6 µM) was 0.986, the viability (Palbociclib; 3 µM) was 0.865 and the viability (Palbociclib; 15 µM) was 0.33. For the same test system, the viability (Thalidomide; 0.032 µM) was 0.988, the viability (Thalidomide; 0.16 µM) was 1.09 and the viability (Thalidomide; 0.8 µM) was 0.952. It also gave a viability (Thalidomide; 4 µM) of 0.921, a viability (Thalidomide; 20 µM) of 0.961 and a viability (Selinexor; 0.008 µM) of 0.987. For the same test system, the viability (Selinexor; 0.04 µM) was 0.861, the viability (Selinexor; 0.2 µM) was 0.779 and the viability (Selinexor; 1 µM) was 0.383. The viability (Selinexor; 5 µM) was 0.333.
